The record followed here is patent US9421204B2, “Oligomer modified diaromatic substituted compounds” (priority 2010, dated 2016).

Like-named read-outs stand apart in the source and are kept apart here.

Series [1] in a line: pKa determination (Sirius GLpKa). Particulars: aqueous pKa, 25° C. It is filed as physicochemical. How it is done:
The Sirius GLpKa instrument is used to determine the pKa and Log P. A blank standardization has to be completed first and passed in order to conduct the compound experiments. The solutions used by the instrument for the blank titration include water, a pH solution, and a surfactant (TRITON X-100). The TRITON X-100 was purchased commercially from Sirus. The 0.5% solution of TRITON X-100 was used in the experiment. In a 1 L volumetric flask 5 mls of TRITON X-100 is added and MILLI Q water to volume. The vessels used by the instrument were filled to ⅓ of their volume with each solution. Therefore the assay tray contains one vessel for water, pH solution, and surfactant for the blank run. The temperature of the water bath for the instrument is 25° C. The blank is calculated as an average of three “good” experiments. The “good” was denoted by a green check mark next to the assay number in the computer software. Once the blank was run successfully the instrument was ready to conduct the experiments.
The pKa has to be determined first in order to calculate the Log P. The API is used to determine the pKa needed for the Log P experiment followed by the conjugates. The base compound was first weighed into a vessel. The amount weighed for each sample was 10% of the molecular weight of the compound. The same procedure was followed for each conjugate. The vessels were placed in the assay tray of the instrument. A method had to be set up for the pKa run. The experimental parameters are entered into the computer software. These included sample weight, molecular weight, assay type (aqueous pKa), number of assays (three), and titration range (generally 3.5-12). The run was started. There are three measurements for each run that are averaged to obtain the final results from the data points collected in the calculation software. All runs were denoted as “good” by the green check mark next to the assay number.

The subject of the next series is HIV-1RF. The experiment in a line: Anti-HIV-1 cytoprotection assay in CEM-SS cells. Particulars: for EC50: CEM-SS cells, XTT, read-out: CEM-SS/HIV-1RF EC50; for Therapeutic Index: CEM-SS/HIV-1RF. It is filed as cell-based. The protocol: Cell Preparation—CEM-SS cells were passaged in T-75 flasks prior to use in the antiviral assay. On the day preceding the assay, the cells were split 1:2 to assure they were in an exponential growth phase at the time of infection. Total cell and viability quantification was performed using a hemocytometer and Trypan Blue dye exclusion. […] The cells were resuspended at 5×10^4 cells per ml in tissue culture medium and added to the drug containing microtiter plates in a volume of 50 μL.
Virus Preparation—The virus used for the assay was the lymphocyte-tropic virus strain HIV-IRF. The virus was obtained from the NIH AIDS Research and Reference Reagent Program and stock virus pools were produced in CEM-SS cells. A pretitred aliquot of virus was removed from the freezer (−80° C.) and allowed to thaw slowly to room temperature in a biological safety cabinet.
Plate Format—Each plate contains cell control wells (cells only), virus control wells (cells plus virus), drug toxicity wells (cells plus drug only), drug colorimetric control wells (drug only) as well as experimental wells (drug plus cells plus virus). Samples were tested in triplicate with eleven half-log dilutions per compound.
(§1) Efficacy and Toxicity XTT—Following incubation at 37° C. in a 5% CO2 incubator, the test plates were stained with the tetrazolium dye XTT (2,3-bis(2-methoxy-4-nitro-5-sulfophenyl)-5-[(phenylamino)carbonyl]-2H-tetrazolium hydroxide). XTT-tetrazolium is metabolized by the mitochondrial enzymes of metabolically active cells to a soluble formazan product, allowing rapid quantitative analysis of the inhibition of HIV induced cell killing by anti-HIV test substances. XTT solution was prepared daily as a stock of 1 mg/mL in RPMI1640. Phenazine methosulfate (PMS) solution was prepared at 0.15 mg/mL in PBS and stored in the dark at −20° C. XTT/PMS stock was prepared immediately before use by adding 40 μL of PMS per ml of XTT solution. Fifty microliters of XTT/PMS was added to each well of the plate and the plate was re-incubated for 4 hours at 37° C. Plates were sealed with adhesive plate sealers and shaken gently or inverted several times to mix the soluble fosmazan product and the plate was read spectrophotometrically at 450/650 nm with a Molecular Devices Vmax plate reader.
Anti-HIV-1 Cytopathic Effects Inhibition Assay Evaluations: Eight compounds were evaluated against the RF strain of HIV-1 in CEM-SS cells using a 12 concentration dose response curve.
(§2) Data Analysis—Raw data was collected from the Softmax Pro 4.6 software and imported into a Excel XLFit4 spreadsheet for analysis by four parameter curve fit calculations. Both antiviral activity and toxicity are calculated.
Background: Tetrazolium assays rely on reduction of a dye to a coloured formazan, in cell work by metabolically active cells.

The test system of a further series is NL4-3L100I. Nature of the series: Anti-HIV cytoprotection assay, drug resistant NL4-3 L100I. It is filed as cell-based. Particulars: HIV-1 strain NL4-3L100I; for EC50: CEM-SS cells. The protocol: (§3) Cells were prepared as described above. Virus Preparation—The wild type NL4-3 and drug resistant A17 viruses were obtained from the NIH AIDS Research and Reference Reagent Program and stock virus pools were produced in CEM-SS cells. Amino acid substitutes of L100I, Y181C and P23L were introduced by site-directed mutagenesis into pN L4-3 and stock virus pools were produced in CEM-SS cells. A pretitered aliquot of virus was removed from the freezer (−80° C.) and allowed to thaw slowly to room temperature in a biological safety cabinet. Virus was re-suspended and diluted into tissue culture medium such that the amount of virus added to each well in a volume of 50 μL was the amount determined to yield 85 to 95% cell killing at 6 days post-infection.
as §1, with “Plate Format—Each plate contains cell control wells (cells only), virus control wells (cells plus virus), drug toxicity wells (cells plus drug only), drug colorimetric control wells (drug only) as well as experimental wells (drug plus cells plus virus). Samples were tested in triplicate with eleven half-log dilutions per compound. Efficacy” for “Efficacy”, “XTT-tetrazolium was” for “XTT-tetrazolium is”, “C. XTTIPMS” for “C. XTT/PMS”, “soluble formazan” for “soluble fosmazan”
as §2

Another series concerns NL4-3Y181C. The experiment in a line: Anti-HIV cytoprotection assay, drug resistant NL4-3 Y181C. It is filed as cell-based. Particulars: HIV-1 strain NL4-3Y181C; for EC50: CEM-SS cells. The protocol: as §3
as §1, with “Plate Format—Each plate contains cell control wells (cells only), virus control wells (cells plus virus), drug toxicity wells (cells plus drug only), drug colorimetric control wells (drug only) as well as experimental wells (drug plus cells plus virus). Samples were tested in triplicate with eleven half-log dilutions per compound. Efficacy” for “Efficacy”, “XTT-tetrazolium was” for “XTT-tetrazolium is”, “C. XTTIPMS” for “C. XTT/PMS”, “soluble formazan” for “soluble fosmazan”
as §2

[2] abbreviates: Human immunodeficiency virus 1, CEM-SS.

Regarding “5-O-mPEG9-Delavirdine [mPEG9-O-Delavirdine]”, in series [1], the pKa1 is given as 4.655. The EC50 was 130 nM in the series with HIV-1RF, 940 nM with NL4-3L100I (read-out: EC50) and greater than 5000 nM with NL4-3Y181C (read-out: EC50). Also, in the series on HIV-1RF, the “Therapeutic Index” value was determined as 323.1. Further, the TI with NL4-3L100I is on record as greater than 5.3.
In the case of `COCCNc1ccc2[nH]c(C(=O)N3CCN(c4ncccc4NC(C)C)CC3)cc2c1` [5-mPEG1-NH-Delavirdine, 5-mPEG-NH-Delavirdine], in the series with HIV-1RF, the “Therapeutic Index” value worked out at 1083.11. In addition, the results for the EC50 in the series on HIV-1RF (setting [2]), with NL4-3L100I (setting [2]) and in the series with NL4-3Y181C (setting [2]) were 47 nM, 560 nM and 820 nM, respectively. In addition, the TI in the series on NL4-3L100I is listed as greater than 1.8; with NL4-3Y181C, greater than 1.2.
In the case of `COCCOCCNc1ccc2[nH]c(C(=O)N3CCN(c4ncccc4NC(C)C)CC3)cc2c1` [5-mPEG2-NH-Delavirdine], in the series on HIV-1RF, the “Therapeutic Index” value was found to be 3266.29. The EC50 in the series with HIV-1RF (setting [2]) was 17 nM; in the series with NL4-3L100I (setting [2]), 710 nM; in the series with NL4-3Y181C (setting [2]), greater than 1000 nM. The same compound had a TI in the series on NL4-3L100I greater than 1.4.
Take `COCCOCCOCCOc1ccc2[nH]c(C(=O)N3CCN(c4ncccc4NC(C)C)CC3)cc2c1` [mPEG3-O-Delavirdine, 5-O-mPEG3-Delavirdine]: in series [1], the pKa1 turned out to be 3.792. For the same compound, the “Therapeutic Index” value with HIV-1RF was found to be 499.0. The EC50 in the series with HIV-1RF (setting [2]) is 54 nM; with NL4-3L100I (setting [2]), 30 nM; with NL4-3Y181C (setting [2]), greater than 5000 nM. In the series on NL4-3L100I, this compound had a TI greater than 167.0.
On to `COCCOCCOCCOCCOc1ccc2[nH]c(C(=O)N3CCN(c4ncccc4NC(C)C)CC3)cc2c1` [mPEG4-O-Delavirdine, 5-O-mPEG4-Delavirdine], for which the pKa1 in series [1] came out at 4.275. Also, the “Therapeutic Index” value with HIV-1RF is given as 213.8. For the same compound, the EC50 is 160 nM in the series with HIV-1RF (setting [2]), 950 nM in the series on NL4-3L100I (setting [2]) and greater than 5000 nM in the series on NL4-3Y181C (setting [2]). This compound showed a TI with NL4-3L100I greater than 5.3.
Turning to `COCCOCCOCCOCCOCCOc1ccc2[nH]c(C(=O)N3CCN(c4ncccc4NC(C)C)CC3)cc2c1` [mPEG5-O-Delavirdine, 5-O-mPEG5-Delavirdine], the pKa1 in series [1] worked out at 4.454. Also, the “Therapeutic Index” value in the series on HIV-1RF was determined as 19.0. The EC50 with HIV-1RF (setting [2]) is 760 nM.
The matching figures for `COCCOCCOCCOCCOCCOCCOc1ccc2[nH]c(C(=O)N3CCN(c4ncccc4NC(C)C)CC3)cc2c1` [mPEG6-O-Delavirdine, 5-O-mPEG6-Delavirdine]: 4.447, 26.7 and 840 nM.
For `COCCOCCOCCOCCOCCOCCOCCOc1ccc2[nH]c(C(=O)N3CCN(c4ncccc4NC(C)C)CC3)cc2c1` [mPEG7-O-Delavirdine, 5-O-mPEG7-Delavirdine], in that order: 4.683, 76.1 and 470 nM.
The matching figures for `COCCOCCOCCOCCOCCOCCOCCOCCOc1ccc2[nH]c(C(=O)N3CCN(c4ncccc4NC(C)C)CC3)cc2c1` [mPEG8-O-Delavirdine, 5-O-mPEG8-Delavirdine]: 4.667, 144.2 and 360 nM.
